Data taken from US9365520B2, “Heterocyclic compound” (Takeda Pharmaceutical Company Limited, priority 2014, dated 2016).

These molecules were tested on IL-17A gene expression (assay: Effect on IL-23-induced cytokine expression in mice). Conditions: Mus musculus, 24 h; 10 mg/kg oral, 30 min before and 8 hr after IL-23; ear tissue; versus the negative control group; read-out: percent inhibition of IL-17A gene expression.
Type: in vivo, Balb/c mice
Experimental: Effect on IL-23-Induced Cytokine Expression in Mice
A mouse IL-23 solution (500 ng/10 μL, prepared by Takeda Pharmaceutical Company Limited) or PBS (10 μL, negative control group) was administered intradermally in the ear of Balb/c mice (Charles River Japan, male, 7 weeks old). Twenty-four hr after administration, the ear was resected under isoflurane anesthesia. The test compound was suspended in 0.5% methylcellulose and administered orally 30 min before and 8 hr after IL-23 administration.
RNA extraction from the ear tissue and quantitative PCR were performed as follows. Specifically, ear tissue 5 mm in diameter was punched from an area of the resected ear centering on the IL-23 injection site, and the tissue was immersed in RNAlater (QIAGEN) for at least 18 hr. The RNAlater-treated ear tissue was homogenized in 350 μL of RLT buffer (RNeasy mini kit, QIAGEN) and treated (55° C., 10 min) with Proteinase K (QIAGEN). Total RNA was then extracted according to the RNeasy mini kit protocol. The RNA thus obtained was then reverse transcribed into cDNA using the High-Capacity RNA-to-cDNA kit (Applied Biosystems), and the amount of each gene expressions was measured by real-time PCR (Viia7™, Applied Biosystems). The PCR buffer used was TaqMan Fast Advanced Master Mix (Applied Biosystems), and TaqMan Gene Expression Assays (Applied Biosystems) Mm00439618_m1 (IL-17A) and 4352341E (β-actin) were used for each gene detection. The IL-17A gene expression level was normalized to the β-actin gene expression level, and the percent inhibition of IL-17A gene expression with the test compound was then calculated.
The results (percent inhibition of IL-17A gene expression with oral administration of the test compound) measured by the above-mentioned method are shown in Table 9.

Structure (SMILES) | inhibition in vivo at 10 mg/kg
CCOc1ccc2c(c1)CCN(C(=O)[C@H]1C[C@@H](C(=O)O)C1)[C@H]2C(=O)Nc1cc(F)c([Si](C)(C)C)c(F)c1 [Example 8, cis-3-(((1R)-1-((3,5-difluoro-4-(trimethylsilyl)phenyl)carbamoyl)-6-ethoxy-3,4-dihydroisoquinolin-2(1H)-yl)carbonyl)cyclobutanecarboxylic acid] | 72%
COc1ccc2c(n1)CCN(C(=O)[C@H]1C[C@@H](C(=O)O)C1)[C@H]2C(=O)Nc1cc(F)c([Si](C)(C)C)c(F)c1 [Example 31, cis-3-(((5R)-5-((3,5-difluoro-4-(trimethylsilyl)phenyl)carbamoyl)-2-methoxy-7,8-dihydro-1,6-naphthyridin-6(5H)-yl)carbonyl)cyclobutanecarboxylic acid] | 85%
COc1ccc2c(c1)CCN(C(=O)[C@H]1C[C@@H](CC(=O)O)C1)[C@H]2C(=O)Nc1ccc([Si](C)(C)C)c(F)c1 [Example 33, (cis-3-(((1R)-1-((3-fluoro-4-(trimethylsilyl)phenyl)carbamoyl)-6-methoxy-3,4-dihydroisoquinolin-2(1H)-yl)carbonyl)cyclobutyl)acetic acid] | 94%
COc1ccc2c(n1)CCN(C(=O)[C@H]1C[C@@H]1CC(=O)O)[C@H]2C(=O)Nc1cc(F)c([Si](C)(C)C)c(F)c1 [Example 13, ((1R,2S)-2-(((5R)-5-((3,5-difluoro-4-(trimethylsilyl)phenyl)carbamoyl)-2-methoxy-7,8-dihydro-1,6-naphthyridin-6(5H)-yl)carbonyl)cyclopropyl)acetic acid] | 91%
COc1ccc2c(c1)CCN(C(=O)[C@H]1C[C@@H](CC(=O)O)C1)[C@H]2C(=O)Nc1cc(F)c([Si](C)(C)C)c(F)c1 [Example 25, (cis-3-(((1R)-1-((3,5-difluoro-4-(trimethylsilyl)phenyl)carbamoyl)-6-methoxy-3,4-dihydroisoquinolin-2(1H)-yl)carbonyl)cyclobutyl)acetic acid] | 92%
COc1ccc2c(c1)CCN(C(=O)[C@H]1C[C@@H]1CC(=O)O)[C@H]2C(=O)Nc1cc(F)c([Si](C)(C)C)c(F)c1 [Example 29, ((1R,2S)-2-(((1R)-1-((3,5-difluoro-4-(trimethylsilyl)phenyl)carbamoyl)-6-methoxy-3,4-dihydroisoquinolin-2(1H)-yl)carbonyl)cyclopropyl)acetic acid] | 73%
COc1ccc2c(c1)CCN(C(=O)[C@H]1C[C@@H](C(=O)O)C1)[C@H]2C(=O)Nc1cc(F)c([Si](C)(C)C)c(F)c1 [Example 5, cis-3-(((1R)-1-((3,5-difluoro-4-(trimethylsilyl)phenyl)carbamoyl)-6-methoxy-3,4-dihydroisoquinolin-2(1H)-yl)carbonyl)cyclobutanecarboxylic acid] | 57%
COc1ccc2c(n1)CCN(C(=O)[C@H]1C[C@H](CC(=O)O)C1)[C@H]2C(=O)Nc1cc(F)c2c(c1)CCC2(C)C [Example 20, (trans-3-(((5R)-5-((7-fluoro-1,1-dimethyl-2,3-dihydro-1H-inden-5-yl)carbamoyl)-2-methoxy-7,8-dihydro-1,6-naphthyridin-6(5H)-yl)carbonyl)cyclobutyl)acetic acid] | 99%
CCOc1ccc2c(c1)CCN(C(=O)[C@H]1C[C@H](C(=O)O)C1)[C@H]2C(=O)Nc1cc(F)c([Si](C)(C)C)c(F)c1 [Example 9, trans-3-(((1R)-1-((3,5-difluoro-4-(trimethylsilyl)phenyl)carbamoyl)-6-ethoxy-3,4-dihydroisoquinolin-2(1H)-yl)carbonyl)cyclobutanecarboxylic acid] | 57%
COc1ccc2c(n1)CCN(C(=O)[C@H]1C[C@H](CC(=O)O)C1)[C@H]2C(=O)Nc1cc(F)c([Si](C)(C)C)c(F)c1 [Example 28, (trans-3-(((5R)-5-((3,5-difluoro-4-(trimethylsilyl)phenyl)carbamoyl)-2-methoxy-7,8-dihydro-1,6-naphthyridin-6(5H)-yl)carbonyl)cyclobutyl)acetic acid] | 91%
